Read-outs that look alike come from different tables or passages of the source.
Key:
Type in all cases: cell-based, human
[1] = system: HL-60-S cells; assay: Nucleoside transport in HL-60-S cells; details: for IC50: 15-min preincubation, 30 s
Source text: (§1) FIG. 15. Comparison of the concentration-dependent inhibitions of the cellular transport of purine (A) and pyrimidine (B) nucleosides by DAU (open symbols) and TT2 (closed symbols) in HL-60-S (circles), HL-60-RV (squares) and HL-60-R8 (triangles) cells in vitro. Results are expressed as % of ^3H-adenosine (26,032±2,239 cpm, 100±9%, striped area in A) and ^3H-thymidine (17,934±1,398 cpm, 100±8%, striped area in B) transported into vehicle-treated control cells over 30 s.
(§2) The MDR HL-60-RV and HL-60-R8 cells were developed in Melvin S. Center's laboratory (Kansas State University) and similarly maintained in RPMI 1640 medium in the absence of drugs (Marsh W, et al, Cancer Res 46: 4053-4057, 1986; McGrath T et al, and Center M S: Biochem Biophys Res Commun 145: 1171-1176, 1987; Marsh W and Center M S: Cancer Res 47: 5080-5086, 1987; McGrath T, et al, Biochem Pharmacol 38: 3611-3619, 1989; Marquardt D, et al, Cancer Res 50: 1426-1430, 1990; Marquardt D and Center M S: J Natl Cancer Inst 83: 1089-1109, 1991; Krishnamachary N and Center M S; Cancer Res 53: 3658-3661, 1993). Every 4 weeks, these HL-60-RV and HL-60-R8 sublines were exposed to 41 nM DAU for 48 h to stabilize their MDR phenotype. This concentration of DAU, which is not cytotoxic to MDR HL-60 sublines, was removed from the culture medium at least 48 h before experimentation. […] RFs were determined by dividing the IC50 of the MDR cells by that of the sensitive WT parent cell line.
(§3) L1210 cells (about 1.5×10^6 cells/0.5 ml) were preincubated for 15 min at 37° C. in the presence or absence of TTs and then exposed to 1 μCi of ^3H-thymidine for only 30 sec to assess the cellular uptake of nucleoside over such very short period of time. […] Cell lysates were mixed with 9 ml of Bio-Safe II (Researeh Products International) and counted to estimate the cellular uptake of ^3H-thymidine. Drug inhibition was expressed as % of ^3H-thymidine or ^3H-adenosine transported into vehicle-treated control cells over similar 30-sec period.

[2] = system: HL-60-RV cells; assay: Nucleoside transport in HL-60-RV cells; details: for IC50: 15-min preincubation, 30 s
Source text: as §1, §2
as §3, with “time. HL-60-S, HL-60-RV and HL-60-R8 cells (1.2×10^6 cells/0.5 ml) were preincubated for 15 min at 37° C. in the presence or absence (control) of drugs and then exposed to 1 μCi of [2,8-^3H]adenosine (30 Ci/mmol; American Radiolabeled Chemicals, St. Louis, Mo.) or [methyl-^3H]thymidine (50 Ci/mmol; Amersham, Arlington Heights, Ill.) for only 30 s to, respectively, assess the cellular uptake of purine and pyrimidine nucleosides over such very short period of time Reactions were diluted with 2 ml of ice-cold Ca^2+/Mg^2+-free Dulbecco's phosphate buffered saline (PBS) and the unincorporated radiolabel was removed by centrifugation at 200×g for 10 min.” for “time.”

[3] = system: HL-60-RV cells; assay: DNA cleavage in HL-60-RV cells; details: 24 h
Protocol: FIG. 23. Comparison of the concentration-dependent inductions of DNA cleavage by DAU (open symbols in A) and TT2 (closed symbols in B) at 24 h in HL-60-S (circles), HL-60-RV (squares) and HL-60-R8 (triangles) cells containing ^3H-prelabeled DNA in vitro. Results are expressed as [cpm in supernatant/cpm in supernatant+pellet]×100 at 24 h. For untreated controls (14.7±1.7% DNA fragmentation, striped areas), the supernatant (DNA fragments) is 12,815±1,358 cpm and the pellet (intact DNA) is 74,406±9,078 cpm.
as §2, with “phenotype.” for “phenotype. This concentration of DAU, which is not cytotoxic to MDR HL-60 sublines, was removed from the culture medium at least 48 h before experimentation.”, “line. […]” for “line.”

COc1cccc2c1C(=O)c1c(O)c3c(c(O)c1C2=O)C[C@@](O)(C(C)=O)C[C@@H]3O[C@H]1C[C@H](N)[C@H](O)[C@H](C)O1 [DAU, daunomycin, reference compound] was tested. Which “effect on nucleoside transport in WT HL-60-S cells” value [1] did it give?
Its value is “fails to significantly inhibit”.

And the “effect on nucleoside transport in the two MDR sublines” value ([2]; HL-60-RV and HL-60-R8)?
Its value is “unable”.

And the “reduction of the peak of maximal DNA cleavage relative to HL-60-S cells” value [3]?
The value was 79%.

Which IC50 ([1]; purine nucleoside, read-out: IC50, cellular transport of 3H-adenosine in HL-60-S cells) does the source give for COC1=CC(=O)C2=C(C1=O)C1C3=C(C(=O)C=CC3=O)C2c2ccccc21 (stereo not drawn) [TT2, 2-Methoxy-9,10-dihydro-9,10-[1′,2′]benzenoanthracene-1,4,5,8-tetraone] here?
The IC50 was 3.3 µM.

What about the IC50 ([1]; pyrimidine nucleoside, read-out: IC50, cellular transport of 3H-thymidine in HL-60-S cells) of the same compound?
Its IC50 is 2 µM.

And the “RFs, nucleoside transport” value ([2]; HL-60-RV and HL-60-R8 vs HL-60-S, adenosine and thymidine)?
The value was 1.0-1.2.

And the IC50 ([2]; purine nucleoside, read-out: IC50, cellular transport of 3H-adenosine in HL-60-RV cells)?
Its IC50 is 3.2 µM.

What about the IC50 ([2]; pyrimidine nucleoside, read-out: IC50, cellular transport of 3H-thymidine in HL-60-RV cells) of the same compound?
The IC50 was 2 µM.

What about the “reduction of the peak of maximal DNA cleavage relative to HL-60-S cells” value [3] of the same compound?
The value was 39%.

Source: patent US6828450B2, “Triptycene analogs” (Kansas State University Research Foundation, priority 2000, dated 2004)
